One test has as its target T1, PI3K-alpha (Homo sapiens, UniProt P42336).
T1 construct: purchased Upstate; Millipore 14-602
Put plainly: HTRF PI3K biochemical assay, alpha isoform. To be noted: ratio PI3K-alpha IC50 value / PI3K-delta IC50 value. (In general: TR-FRET usually uses a lanthanide donor and a delayed reading to cut background.)

In another test the target is T2, PI3K-delta (Homo sapiens, UniProt O00329).
T2 construct: purchased Upstate; Millipore 14-604
Briefly: HTRF PI3K biochemical assay, delta isoform. To be noted: form screened (neutral or TFA salt) given, read-out: PI3Kdelta IC50.

pIC50: −log10 of the molar value. Some results are limits rather than exact numbers.

T1 sequence (P42336 whole entry): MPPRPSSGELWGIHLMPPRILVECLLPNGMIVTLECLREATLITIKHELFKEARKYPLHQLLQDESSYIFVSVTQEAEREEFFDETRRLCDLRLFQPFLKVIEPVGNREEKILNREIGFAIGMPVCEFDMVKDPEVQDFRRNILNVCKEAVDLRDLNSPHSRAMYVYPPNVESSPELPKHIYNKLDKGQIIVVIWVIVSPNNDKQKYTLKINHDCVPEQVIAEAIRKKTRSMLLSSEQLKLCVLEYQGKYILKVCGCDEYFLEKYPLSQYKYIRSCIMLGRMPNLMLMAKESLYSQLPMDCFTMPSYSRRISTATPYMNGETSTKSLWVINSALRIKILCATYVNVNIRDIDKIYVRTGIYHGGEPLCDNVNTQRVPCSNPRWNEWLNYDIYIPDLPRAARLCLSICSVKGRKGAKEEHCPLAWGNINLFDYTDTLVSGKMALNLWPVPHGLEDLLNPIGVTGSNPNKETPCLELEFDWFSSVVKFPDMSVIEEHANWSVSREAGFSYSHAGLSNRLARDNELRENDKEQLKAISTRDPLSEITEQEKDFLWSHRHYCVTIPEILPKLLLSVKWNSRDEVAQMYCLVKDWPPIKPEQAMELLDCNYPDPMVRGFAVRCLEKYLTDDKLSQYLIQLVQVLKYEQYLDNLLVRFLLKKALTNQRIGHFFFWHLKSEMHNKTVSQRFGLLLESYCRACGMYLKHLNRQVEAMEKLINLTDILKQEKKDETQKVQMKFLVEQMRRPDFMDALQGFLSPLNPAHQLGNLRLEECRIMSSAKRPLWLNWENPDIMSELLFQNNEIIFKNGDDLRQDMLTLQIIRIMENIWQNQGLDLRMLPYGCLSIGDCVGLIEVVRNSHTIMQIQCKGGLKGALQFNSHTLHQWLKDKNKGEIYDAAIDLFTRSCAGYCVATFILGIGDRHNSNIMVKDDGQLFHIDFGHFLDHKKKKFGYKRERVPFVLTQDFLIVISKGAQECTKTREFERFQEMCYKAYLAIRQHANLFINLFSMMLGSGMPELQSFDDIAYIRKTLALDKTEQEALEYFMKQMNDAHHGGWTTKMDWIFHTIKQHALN
T1 sequence (P27986 whole entry partner): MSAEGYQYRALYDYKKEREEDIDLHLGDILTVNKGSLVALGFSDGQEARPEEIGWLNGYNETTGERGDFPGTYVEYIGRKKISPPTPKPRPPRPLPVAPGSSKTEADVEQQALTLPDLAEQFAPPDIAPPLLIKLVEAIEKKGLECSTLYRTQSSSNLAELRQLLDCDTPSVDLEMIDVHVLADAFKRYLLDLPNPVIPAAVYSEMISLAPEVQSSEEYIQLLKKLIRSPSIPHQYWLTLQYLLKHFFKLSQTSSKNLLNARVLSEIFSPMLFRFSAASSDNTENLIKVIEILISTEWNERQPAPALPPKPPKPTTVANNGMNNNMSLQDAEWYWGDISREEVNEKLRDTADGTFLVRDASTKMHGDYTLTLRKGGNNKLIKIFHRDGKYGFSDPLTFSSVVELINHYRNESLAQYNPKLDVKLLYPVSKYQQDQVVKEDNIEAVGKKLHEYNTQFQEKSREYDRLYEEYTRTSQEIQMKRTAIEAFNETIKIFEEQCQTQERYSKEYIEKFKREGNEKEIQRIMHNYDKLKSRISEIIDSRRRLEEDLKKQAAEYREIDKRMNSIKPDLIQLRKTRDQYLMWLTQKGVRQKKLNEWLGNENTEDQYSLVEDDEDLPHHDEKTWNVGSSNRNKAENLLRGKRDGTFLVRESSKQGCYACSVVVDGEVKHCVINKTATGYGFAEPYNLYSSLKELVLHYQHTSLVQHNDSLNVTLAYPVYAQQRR
T2 sequence (O00329 whole entry): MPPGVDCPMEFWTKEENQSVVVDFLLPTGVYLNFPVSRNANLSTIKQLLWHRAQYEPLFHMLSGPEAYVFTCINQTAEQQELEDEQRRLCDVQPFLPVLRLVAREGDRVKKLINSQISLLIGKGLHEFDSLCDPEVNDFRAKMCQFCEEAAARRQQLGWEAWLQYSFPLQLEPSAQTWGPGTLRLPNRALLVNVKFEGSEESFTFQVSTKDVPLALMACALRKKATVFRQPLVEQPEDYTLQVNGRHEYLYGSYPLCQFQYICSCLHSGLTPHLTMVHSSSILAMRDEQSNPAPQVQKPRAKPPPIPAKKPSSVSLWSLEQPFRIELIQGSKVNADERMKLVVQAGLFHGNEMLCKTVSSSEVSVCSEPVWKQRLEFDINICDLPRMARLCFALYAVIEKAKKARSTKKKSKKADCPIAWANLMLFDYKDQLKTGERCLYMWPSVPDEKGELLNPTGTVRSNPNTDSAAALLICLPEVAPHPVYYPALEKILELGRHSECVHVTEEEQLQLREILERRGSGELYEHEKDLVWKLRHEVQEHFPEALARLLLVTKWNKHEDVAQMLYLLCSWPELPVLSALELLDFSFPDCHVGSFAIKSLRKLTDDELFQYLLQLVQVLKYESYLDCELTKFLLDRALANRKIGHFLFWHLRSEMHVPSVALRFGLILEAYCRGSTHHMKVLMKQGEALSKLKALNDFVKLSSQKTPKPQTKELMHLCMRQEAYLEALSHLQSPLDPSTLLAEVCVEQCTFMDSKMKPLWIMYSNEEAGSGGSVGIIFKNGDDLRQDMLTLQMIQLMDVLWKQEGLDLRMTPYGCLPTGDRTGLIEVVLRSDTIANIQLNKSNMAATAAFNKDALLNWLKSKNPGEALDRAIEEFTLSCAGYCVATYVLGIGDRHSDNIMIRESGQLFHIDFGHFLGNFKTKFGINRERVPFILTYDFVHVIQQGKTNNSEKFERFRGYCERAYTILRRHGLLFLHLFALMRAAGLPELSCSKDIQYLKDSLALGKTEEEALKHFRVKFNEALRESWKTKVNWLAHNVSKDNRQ
T2 sequence (P27986 whole entry partner): as the sequence (P27986 whole entry partner) above

Consider `CCn1c(-c2cnc(C)nc2)nc2c(N[C@H]3CCN(C(=O)OC4CCCCC4)C3)ncnc21` [Compound 13-8, cyclohexyl (3S)-3-{[9-ethyl-8-(2-methylpyrimidin-5-yl)-9H-purin-6-yl]amino}pyrrolidine-l-carboxylate], for which the “Selectivity versus PI3Kalpha” value on PI3K-alpha is given as above 10. Also, at PI3K-delta, the pIC50 was 8.41.

For `CCn1c(-c2cnc(C)nc2)nc2c(N[C@H]3CCN(C(=O)N4CCC4C)C3)ncnc21` (mixture of isomers) [Compound 12-3, 9-ethyl-N-{(3S)-1-[((S and R)-2-methylazetidin-1-yl)carbonyl]pyrrolidin-3-yl}-8-(2-methylpyrimidin-5-yl)-9H-purin-6-amine], the “Selectivity versus PI3Kalpha” value on PI3K-alpha is given as above 10. Besides, the pIC50 on PI3K-delta is 8.80.

For the compound `CCn1c(-c2cnc(C)nc2)nc2c(N[C@H]3CCN(C(=O)C4NC(=O)C4(C)C)C3)ncnc21` (mixture of isomers) [Compound 2-67, (R and S)-4-{[(3S)-3-{[9-ethyl-8-(2-methylpyrimidin-5-yl)-9H-purin-6-yl]amino}pyrrolidin-1-yl]carbonyl}-3,3-dimethylazetidin-2-one], at PI3K-alpha, the “Selectivity versus PI3Kalpha” value is on record as above 10. For the same compound, the pIC50 on PI3K-delta is 8.82.

As to `CCn1c(-c2cnn(CC(F)(F)F)c2)nc2c(N[C@H]3CCN(C(=O)C4CC4)C3)ncnc21` [Compound 3-36, N-[(3S)-1-(cyclopropylcarbonyl)pyrrolidin-3-yl]-9-ethyl-8-[1-(2,2,2-trifluoroethyl)-1H-pyrazol-4-yl]-9H-purin-6-amine], the “Selectivity versus PI3Kalpha” value on PI3K-alpha was above 10. Also, the pIC50 at PI3K-delta is 8.92.

In the case of `CCn1c(-c2cnc(OC)c(C)c2)nc2c(N[C@H]3CCN(C(=O)OC(C)(C)C)C3)ncnc21` [Compound 1-5, (S)-tert-butyl 3-((9-ethyl-8-(6-methoxy-5-methylpyridin-3-yl)-9H-purin-6-yl)amino)pyrrolidine-1-carboxylate], the “Selectivity versus PI3Kalpha” value on PI3K-alpha is reported as above 10. The pIC50 on PI3K-delta was above 9.00.

For the compound `CCn1c(C(=O)NCCC(F)(F)F)nc2c(N[C@H]3CCN(C(=O)C4CC4)C3)ncnc21` [Compound 6-17, 6-{[(3S)-1-(cyclopropylcarbonyl)pyrrolidin-3-yl]amino}-9-ethyl-N-(3,3,3-trifluoropropyl)-9H-purine-8-carboxamide], the “Selectivity versus PI3Kalpha” value at PI3K-alpha is on record as above 10. Besides, the pIC50 on PI3K-delta was 7.85.

`CCn1c(-c2cnc(C)nc2)nc2c(N[C@H]3CCN(C(=O)C4CCNCC4)C3)ncnc21` [Compound 2-78, 9-ethyl-8-(2-methylpyrimidin-5-yl)-N-[(3S)-1-(piperidin-4-ylcarbonyl)pyrrolidin-3-yl]-9H-purin-6-amine]: the “Selectivity versus PI3Kalpha” value at PI3K-alpha is above 10. Further, the pIC50 at PI3K-delta was 8.34.

On to `CCn1c(-c2cnc(OC)c(C)c2)nc2c(N[C@H]3CCN(C(=O)C4CC(F)(F)C4)C3)ncnc21` [Compound 3A-5, N-{(3S)-1-[(3,3-difluorocyclobutyl)carbonyl]pyrrolidin-3-yl}-9-ethyl-8-(6-methoxy-5-methylpyridin-3-yl)-9H-purin-6-amine], for which the “Selectivity versus PI3Kalpha” value on PI3K-alpha is recorded as above 10. Besides, the pIC50 on PI3K-delta was above 9.00.

As to `CCn1c(-c2cnc(C)nc2)nc2c(NC3CN(C(=O)C4CC4)CC3F)ncnc21` (racemic) [Compound 3-26, N-[(3R,4S and 3S,4R)-1-(cyclopropylcarbonyl)-4-fluoropyrrolidin-3-yl]-9-ethyl-8-(2-methylpyrimidin-5-yl)-9H-purin-6-amine], the “Selectivity versus PI3Kalpha” value on PI3K-alpha was above 10. Moreover, the pIC50 at PI3K-delta was 7.47.

Regarding `CCn1c(C(F)F)nc2c(N[C@H]3CCN(C(=O)N4CC(OC)C4)C3)ncnc21` [Compound 7-28, 8-(difluoromethyl)-9-ethyl-N-{(3S)-1-[(3-methoxyazetidin-1-yl)carbonyl]pyrrolidin-3-yl}-9H-purin-6-amine], the “Selectivity versus PI3Kalpha” value at PI3K-alpha is recorded as above 10. Besides, the pIC50 at PI3K-delta is 8.49.

Regarding `CCn1c(-c2ccc(C(F)(F)F)nc2)nc2c(N[C@H]3CCN(C(=O)OC(C)(C)C)C3)ncnc21` [Compound 1-22, tert-butyl (3S)-3-({9-ethyl-8-[6-(trifluoromethyl)pyridin-3-yl]-9H-purin-6-yl}amino)pyrrolidine-1-carboxylate], on PI3K-alpha, the “Selectivity versus PI3Kalpha” value is on record as above 10. Moreover, the pIC50 on PI3K-delta is above 9.00.

With `CCn1ncc(-c2nc3c(N[C@H]4CCN(C(=O)OC(C)(C)C)C4)ncnc3n2CC)c1C` [Compound 1-14, tert-butyl (3S)-3-{[9-ethyl-8-(1-ethyl-5-methyl-1H-pyrazol-4-yl)-9H-purin-6-yl]amino}pyrrolidine-1-carboxylate], the “Selectivity versus PI3Kalpha” value on PI3K-alpha is given as above 10. Moreover, at PI3K-delta, the pIC50 was 8.96.

For the compound `CCn1c(-c2cnc(C)nc2)nc2c(N[C@H]3CCN(C(=O)NCCOC)C3)ncnc21` [Compound 12-2, (3S)-3-{[9-ethyl-8-(2-methylpyrimidin-5-yl)-9H-purin-6-yl]amino}-N-(2-methoxyethyl)pyrrolidine-1-carboxamide], on PI3K-alpha, the “Selectivity versus PI3Kalpha” value is above 10. In addition, on PI3K-delta, the pIC50 was 8.05.

Regarding `CCCn1c(-c2cnn(CC)c2C)nc2c(N[C@H]3CCN(C(=O)CC)C3)ncnc21` [Compound 9-1, 8-(1-ethyl-5-methyl-1H-pyrazol-4-yl)-N-[(3S)-1-propanoylpyrrolidin-3-yl]-9-propyl-9H-purin-6-amine], the “Selectivity versus PI3Kalpha” value at PI3K-alpha is given as above 10. The pIC50 on PI3K-delta was 7.70.

On to `CCn1c(-c2cnc(C)nc2)nc2c(N[C@H]3CCN(C(=O)[C@@H]4CCOC4)C3)ncnc21` [Compound 2-40, 9-ethyl-8-(2-methylpyrimidin-5-yl)-N-{(3S)-1-[(3R)-tetrahydrofuran-3-ylcarbonyl]pyrrolidin-3-yl}-9H-purin-6-amine], for which, at PI3K-alpha, the “Selectivity versus PI3Kalpha” value is given as above 10. Also, the pIC50 at PI3K-delta was 8.80.

On to `CCn1c(-c2cnc(C)nc2)nc2c(N[C@H]3C[C@@H](C(N)=O)N(C(=O)C4CC4)C3)ncnc21` [Compound 15-10, (4S)-1-(cyclopropylcarbonyl)-4-{[9-ethyl-8-(2-methylpyrimidin-5-yl)-9H-purin-6-yl]amino}-L-prolinamide], for which, at PI3K-alpha, the “Selectivity versus PI3Kalpha” value is above 10. At PI3K-delta, the pIC50 is 7.22.

Turning to `CCn1c(-c2cnc(C)nc2)nc2c(N[C@H]3CCN(C(=O)C4(C)CCCO4)C3)ncnc21` (mixture of isomers) [Compound 2-68, 9-ethyl-8-(2-methylpyrimidin-5-yl)-N-{(3S)-1-[((S and R)-2-methyltetrahydrofuran-2-yl)carbonyl]pyrrolidin-3-yl}-9H-purin-6-amine], the “Selectivity versus PI3Kalpha” value at PI3K-alpha is above 10. In addition, the pIC50 on PI3K-delta is 7.59.

For `CCn1c(-c2cnc(C)nc2)nc2c(N[C@H]3C[C@H](C(=O)O)N(C(=O)OC(C)(C)C)C3)ncnc21` [Compound 1-18, (4S)-1-(tert-butoxycarbonyl)-4-{[9-ethyl-8-(2-methylpyrimidin-5-yl)-9H-purin-6-yl]amino}-D-proline], the “Selectivity versus PI3Kalpha” value on PI3K-alpha is above 10. The pIC50 on PI3K-delta is 8.70.

Regarding `CCn1c(CC2CC2)nc2c(N[C@H]3CCN(C(=O)C4CC4)C3)ncnc21` [Compound 7-1, N-[(3S)-1-(cyclopropylcarbonyl)pyrrolidin-3-yl]-8-(cyclopropylmethyl)-9-ethyl-9H-purin-6-amine], the “Selectivity versus PI3Kalpha” value on PI3K-alpha is above 10. Moreover, the pIC50 on PI3K-delta was 7.33.

`CCn1c(-c2cnc(C)nc2)nc2c(NC3CN(C(=O)C4CC4)CC3C)ncnc21` (single isomer, unassigned) [Compound 2-87, N-[(3S,4R or 3R,4S)-1-(cyclopropylcarbonyl)-4-methylpyrrolidin-3-yl]-9-ethyl-8-(2-methylpyrimidin-5-yl)-9H-purin-6-amine]: the “Selectivity versus PI3Kalpha” value at PI3K-alpha was above 10. Moreover, the pIC50 on PI3K-delta is 8.77.

As to `CCn1c(-c2cnc(C)nc2)nc2c(N[C@H]3CC[C@@H](C(=O)N(C)C)C3)ncnc21` [Compound 5-4, (1R,3S)-3-{[9-ethyl-8-(2-methylpyrimidin-5-yl)-9H-purin-6-yl]amino}-N,N-dimethylcyclopentanecarbox-amide], the “Selectivity versus PI3Kalpha” value on PI3K-alpha is above 10. Besides, at PI3K-delta, the pIC50 was 8.28.

Turning to `CCn1c(-c2cnc(C)nc2)nc2c(N[C@H]3CCN(C(=O)N4CC(OC)C4)C3)ncnc21` [Compound 12-10, 9-ethyl-N-{(3S)-1-[(3-methoxyazetidin-1-yl)carbonyl]pyrrolidin-3-yl}-8-(2-methylpyrimidin-5-yl)-9H-purin-6-amine], at PI3K-alpha, the “Selectivity versus PI3Kalpha” value is given as above 10. For the same compound, the pIC50 at PI3K-delta is above 9.00.

In the case of `CCn1c(-c2cnc(C)nc2)nc2c(N[C@H]3CCN(C(=O)NC(C)C)C3)ncnc21` [Compound 12-19, (3S)-3-{[9-ethyl-8-(2-methylpyrimidin-5-yl)-9H-purin-6-yl]amino}-N-(1-methylethyl)pyrrolidine-l-carboxamide], the “Selectivity versus PI3Kalpha” value at PI3K-alpha was above 10. For the same compound, at PI3K-delta, the pIC50 is 7.89.

With `CCn1ncc(-c2nc3c(N[C@H]4CCN(C(=O)C5CCOC(C)(C)C5)C4)ncnc3n2C)c1C` (stereo partly drawn) [Compound 2-6, N-{(3S)-1-[(2,2-dimethyltetrahydro-2H-pyran-4-yl)carbonyl]pyrrolidin-3-yl}-8-(1-ethyl-5-methyl-1H-pyrazol-4-yl)-9-methyl-9H-purin-6-amine], on PI3K-alpha, the “Selectivity versus PI3Kalpha” value was above 10. At PI3K-delta, the pIC50 is 8.80.

For the compound `CCn1c(-c2cnc(C)nc2)nc2c(N[C@H]3CCN(C(=O)c4cn(C)nn4)C3)ncnc21` [Compound 2-75, 9-ethyl-8-(2-methylpyrimidin-5-yl)-N-{(3S)-1-[(1-methyl-1H-1,2,3-triazol-4-yl)carbonyl]pyrrolidin-3-yl}-9H-purin-6-amine], the “Selectivity versus PI3Kalpha” value at PI3K-alpha was above 10. The pIC50 on PI3K-delta was 8.33.

Regarding `CCC(=O)N1CC[C@H](Nc2ncnc3c2nc(-c2cncc(C(C)(C)O)c2)n3C)C1` [Compound 3-34, 2-[5-(9-methyl-6-{[(3S)-1-propanoylpyrrolidin-3-yl]amino}-9H-purin-8-yl)pyridin-3-yl]propan-2-ol], the “Selectivity versus PI3Kalpha” value at PI3K-alpha is above 10. Besides, at PI3K-delta, the pIC50 is 8.70.

These data come from US9938281B2 (Merck Sharp & Dohme Corp., priority 2012, dated 2018).
